Data on one sequence can be found in patent US8071540B2, “Virus derived antimicrobial peptides” (priority 2007, dated 2011).

Where no end group is shown, it is not given here.

In the assay the test system is Burkholderia cepacia. The class given is cell-based. The following applies: 25 μM peptide, organisms surviving, FIG. 8.

As to “RWIRVVQRWCRAIRHIWRRIRQGLRRWLRVV [WLSA-5, RWIRVVQRWCRAIRHIWRRIRQGLRRWLRVV]”, the “killing of B. cepacia genomovars compared with LL37” value was “equal to or better than LL-37 at killing all bacterial strains”.
